# Data from patent US4755517A, “Derivatives of xanthine, pharmaceutical compositions and methods of use therefor” (Warner-Lambert Company, priority 1986, dated 1988).
# Tests used:
# mouse locomotor activity = assay: Locomotor activity of mice, drug alone; format: in vivo, Male Swiss-Webster mice; conditions: for percent suppression of locomotion: alone; for effect on spontaneous exploratory activity (in words): mice
# Protocol: Suspensions are ultrasonicated for 3 minutes.
# adenosine A2 receptor = target: T1, adenosine A2 receptor (Rattus norvegicus, UniProt P30543); assay: [3H]-NECA binding to rat striatal membranes (A2 affinity, RBA-2)
# T1 construct: from tissue; host or cells: rat striatal membranes
# adenosine A1 receptor = target: T2, adenosine A1 receptor (Rattus norvegicus, UniProt P25099); assay: [3H]-N6-cyclohexyladenosine binding to rat whole brain membranes (A1 affinity, RBA-1)
# T2 construct: from tissue; host or cells: rat whole brain membranes
# T2 sequence (P25099 1-326): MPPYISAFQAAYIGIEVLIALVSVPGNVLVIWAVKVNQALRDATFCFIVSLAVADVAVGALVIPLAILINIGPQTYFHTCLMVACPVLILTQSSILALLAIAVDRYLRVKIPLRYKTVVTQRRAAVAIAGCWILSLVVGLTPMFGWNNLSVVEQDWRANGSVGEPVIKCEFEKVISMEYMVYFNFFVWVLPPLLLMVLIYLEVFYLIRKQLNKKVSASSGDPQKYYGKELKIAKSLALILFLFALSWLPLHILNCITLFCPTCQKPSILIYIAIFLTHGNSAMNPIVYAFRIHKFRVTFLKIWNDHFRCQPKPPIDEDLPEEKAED
# T1 sequence (P30543 whole entry): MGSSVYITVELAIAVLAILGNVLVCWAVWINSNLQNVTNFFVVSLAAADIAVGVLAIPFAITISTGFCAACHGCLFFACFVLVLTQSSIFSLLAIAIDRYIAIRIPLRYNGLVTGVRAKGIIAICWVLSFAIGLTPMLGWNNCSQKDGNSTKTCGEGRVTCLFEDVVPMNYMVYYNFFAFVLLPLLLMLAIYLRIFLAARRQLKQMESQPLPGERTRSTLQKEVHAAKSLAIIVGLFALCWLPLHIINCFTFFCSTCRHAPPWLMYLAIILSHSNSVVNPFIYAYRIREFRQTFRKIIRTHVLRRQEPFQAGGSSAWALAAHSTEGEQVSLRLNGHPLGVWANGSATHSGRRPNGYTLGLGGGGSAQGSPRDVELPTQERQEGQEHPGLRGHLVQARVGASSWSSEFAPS
IC50 (adenosine A2 receptor) [nM],IC50 (adenosine A1 receptor) [nM],Structure (SMILES),percent suppression of locomotion (mouse locomotor activity; CPA 2 mg/kg IP) [%],effect on spontaneous exploratory activity (in words) (mouse locomotor activity),percent suppression of locomotion (mouse locomotor activity; CV-1808 8 mg/kg IP) [%]
–,–,"OC[C@H]1O[C@@H](n2cnc3c(NC4CCCC4)ncnc32)[C@H](O)[C@@H]1O [CPA, N^6 -cyclopentyladenosine]",94,inhibition of spontaneous exploratory activity,–
–,–,"Nc1nc(Nc2ccccc2)nc2c1ncn2[C@@H]1O[C@H](CO)[C@@H](O)[C@H]1O [CV-1808, 2-anilinoadenosine]",–,inhibition of spontaneous exploratory activity,83
622,2,"CCCn1c(=O)c2[nH]c(C3CCSC3)nc2n(CCC)c1=O (stereo not shown) [Example 1, 1,3-Dipropyl-8-(3-tetrahydrothienyl)xanthine]",–,–,–
3100,20,"CCCn1c(=O)c2[nH]c(C3CCCO3)nc2n(CCC)c1=O (stereo not shown) [Example 2, 1,3-Dipropyl-8-(2-tetrahydrofuranyl)xanthine]",–,–,–
4650,28,"CCCn1c(=O)c2[nH]c(C3CCOC3)nc2n(CCC)c1=O (stereo not shown) [Example 3, 1,3-Dipropyl-8-(3-tetrahydrofuranyl)xanthine]",–,–,–
2000,400,Cn1c(=O)c2nc(C3CCOC3)[nH]c2n(C)c1=O (stereo not shown) [Example 4],–,–,–
–,88,"CCCn1c(=O)c2[nH]c(C3CCCS3)nc2n(CCC)c1=O (stereo not shown) [Example 5, 1,3-Dipropyl-8-(2-tetrahydrothienyl)xanthine]",–,–,–
